# In patent publication US9388389B2, “JFH-1 based HCV cell culture systems for NS5A of genotypes 1-7” (Hvidovre Hospital, priority 2009, dated 2016):
# Like-named read-outs stand apart in the source and are kept apart here.
# Columns and labels:
# [1] = tested on: HCV NS5A genotype 1-7 recombinants; assay: BMS-790052 treatment of infected cultures, high-throughput assay; assay type: cell-based; conditions: Hepatitis C virus, most isolates
# Method: (§1) 5×10^3 naïve Huh7.5 cells were plated per well in a poly-D-lysine coated 96-well plate (Nunc, Roskilde, D K) one day before infection with different recombinant viruses. Infectious doses were chosen to aim at 400-1000 single infected cells in non-treated wells at the end of the experiment. J6/JFH1 was included with two infectious doses (high and low) to control for impact of dose variability. The infectious dose of other recombinants was in the range between. […] On day three cells were fixed and immunostained for NS3 expression as described above. In parallel, cell viability was monitored with CellTiter™ 96 AQueous One Solution Cell Proliferation Assay (Promega, Madison, Wis. USA). The number of single infected cells was determined by automated counting of individual wells as described above.
# (§2) To improve HCV treatment, much attention has been drawn to development of specific small molecule HCV inhibitors, including inhibitors of NS5A. Using the NS5A genotype recombinants, we investigated sensitivity to the NS5A inhibitor most advanced in clinical trials, BMS-790052. Treatment experiments using the specific NS5A inhibitor BMS-790052 (synthesized by Acme Bioscience, Palo Alto, Calif., USA) were conducted similar to what was described for interferon-alpha.
# [2] = tested on: J6/JFH1 with NS5A mutation L27I; assay: BMS-790052 treatment of infected cultures; assay type: cell-based, hepatitis C virus
# J6(2a) NS5A recombinant = assay: BMS-790052 treatment of infected cultures; assay type: cell-based; conditions: Hepatitis C virus
# Method: as §1, §2
# [3] = tested on: J6/JFH1 with JFH1 NS5A domain I exchanged to the J6 sequence; assay: BMS-790052 treatment of infected cultures; assay type: cell-based, hepatitis C virus
# Method: as §1, §2
# (§3) The best described resistance mutation for this drug class, change of NS5A residue 93, induced >10-fold resistance to BMS-790052 for genotype 1 replicons. We changed this residue to histidine in the NS5A genotype 1-6 recombinants; QC69(7a) naturally had histidine. In BMS-790052 treatment experiments, H77C(1a)-Y93H, JFH1(2a)-Y93H and S52(3a)-Y93H were >1000-fold, J4(1b)-Y93H, J6(2a)-Y93H and ED43(4a)-Y93H˜100-fold, and SA13(5a)-T93H and HK6a(6a)-T93H<5-fold more resistant than the respective original recombinants (Table 21). […] The presence of L31M in the J6(2a) isolate and C92E in the S52(3a) isolate corresponded to the higher resistance of these isolates. Further, the lower sensitivity of J1(1a) compared to other 1a recombinants could be caused by the histidine found at NS5A residue 30, previously associated with resistance in patients.
# J4(1b)-Y93H = assay: BMS-790052 treatment of infected cultures; assay type: cell-based, hepatitis C virus
# Method: as §1, §2, §3
# ED43(4a)-Y93H = assay: BMS-790052 treatment of infected cultures; assay type: cell-based, hepatitis C virus
# Method: as §1, §2, §3
# HK6a(6a)-T93H = assay: BMS-790052 treatment of infected cultures; assay type: cell-based, hepatitis C virus
# Method: as §1, §2, §3
# H77C(1a)-Y93H = assay: BMS-790052 treatment of infected cultures; assay type: cell-based, hepatitis C virus
# Method: as §1, §2, §3
# SA13(5a)-T93H = assay: BMS-790052 treatment of infected cultures; assay type: cell-based, hepatitis C virus
# Method: as §1, §2, §3
# S52(3a)-Y93H = assay: BMS-790052 treatment of infected cultures; assay type: cell-based, hepatitis C virus
# Method: as §1, §2, §3
# JFH1(2a)-Y93H = assay: BMS-790052 treatment of infected cultures; assay type: cell-based, hepatitis C virus
# Method: as §1, §2, §3
# [4] = tested on: J6/JFH1 with NS5A mutation L31M; assay: BMS-790052 treatment of infected cultures; assay type: cell-based, hepatitis C virus
# Method: as §1, §2, §3
# J6(2a)-Y93H = assay: BMS-790052 treatment of infected cultures; assay type: cell-based, hepatitis C virus
# Method: as §1, §2, §3
# [5] = tested on: J6/JFH1 with NS5A mutation C92E; assay: BMS-790052 treatment of infected cultures; assay type: cell-based, hepatitis C virus
# Method: as §1, §2, §3
# [6] = tested on: J6/JFH1 with NS5A mutation K30A; assay: BMS-790052 treatment of infected cultures; assay type: cell-based, hepatitis C virus
compound,measurement,setting,value
COC(=O)N[C@H](C(=O)N1CCC[C@H]1c1nc(-c2ccc(-c3ccc(-c4c[nH]c([C@@H]5CCCN5C(=O)[C@@H](NC(=O)OC)C(C)C)n4)cc3)cc2)c[nH]1)C(C)C [BMS-790052],EC50,[1],< 0.1 nM
same,EC50,"[2]; Hepatitis C virus, JFH1(2a), NS5A mutation L27I, single experiment of three replicates, read-out: NS5A inhibitor, EC50 (nM), putative resistance mutant",0.14 nM
same,Fold resistance compared to original,[2]; JFH1(2a) L27I vs original JFH1(2a),1.6 fold
same,EC50,"J6(2a) NS5A recombinant; J6(2a), read-out: EC50",14 nM
same,EC50,"J6(2a) NS5A recombinant; genotype 2a, isolate J6 NS5A recombinant, read-out: NS5A inhibitor, EC50 (nM), original",14 nM
same,EC50,"[3]; Hepatitis C virus, genotype 2a, J6 (domain I), single experiment of three replicates, read-out: NS5A inhibitor, EC50 (nM), original",19 nM
same,resistance,[3]; exchange of JFH1 NS5A domain I to the corresponding J6 sequence,confer resistance
same,EC50,"J4(1b)-Y93H; Hepatitis C virus, J4(1b), NS5A mutation Y93H, read-out: NS5A inhibitor, EC50 (nM), putative resistance mutant",0.77 nM
same,Fold resistance compared to original,J4(1b)-Y93H; J4(1b) Y93H vs original J4(1b),82 fold
same,fold more resistant than the respective original recombinant,J4(1b)-Y93H; J4(1b)-Y93H,~100 fold
same,Fold resistance compared to original,ED43(4a)-Y93H; ED43(4a) Y93H vs original ED43(4a),30 fold
same,fold more resistant than the respective original recombinant,ED43(4a)-Y93H; ED43(4a)-Y93H,~100 fold
same,EC50,"ED43(4a)-Y93H; Hepatitis C virus, read-out: NS5A inhibitor, EC50 (nM), putative resistance mutant",0.53 nM
same,Fold resistance compared to original,HK6a(6a)-T93H; HK6a(6a) T93H vs original HK6a(6a),4.3 fold
same,fold more resistant than the respective original recombinant,HK6a(6a)-T93H; HK6a(6a)-T93H,< 5 fold
same,EC50,"HK6a(6a)-T93H; Hepatitis C virus, HK6a(6a), NS5A mutation T93H, read-out: NS5A inhibitor, EC50 (nM), putative resistance mutant",0.14 nM
same,Fold resistance compared to original,H77C(1a)-Y93H; H77C(1a) Y93H vs original H77C(1a),4300 fold
same,fold more resistant than the respective original recombinant,H77C(1a)-Y93H; H77C(1a)-Y93H,> 1000 fold
same,EC50,"H77C(1a)-Y93H; Hepatitis C virus, H77C(1a), NS5A mutation Y93H, read-out: NS5A inhibitor, EC50 (nM), putative resistance mutant",110 nM
same,EC50,"SA13(5a)-T93H; Hepatitis C virus, SA13(5a), NS5A mutation T93H, read-out: NS5A inhibitor, EC50 (nM), putative resistance mutant",0.14 nM
same,Fold resistance compared to original,SA13(5a)-T93H; SA13(5a) T93H vs original SA13(5a),4.2 fold
same,fold more resistant than the respective original recombinant,SA13(5a)-T93H; SA13(5a)-T93H,< 5 fold
same,EC50,"S52(3a)-Y93H; Hepatitis C virus, S52(3a), NS5A mutation Y93H, read-out: NS5A inhibitor, EC50 (nM), putative resistance mutant",1900 nM
same,Fold resistance compared to original,S52(3a)-Y93H; S52(3a) Y93H vs original S52(3a),2100 fold
same,fold more resistant than the respective original recombinant,S52(3a)-Y93H; S52(3a)-Y93H,> 1000 fold
same,EC50,"JFH1(2a)-Y93H; Hepatitis C virus, JFH1(2a), NS5A mutation Y93H, read-out: NS5A inhibitor, EC50 (nM), putative resistance mutant",140 nM
same,Fold resistance compared to original,JFH1(2a)-Y93H; JFH1(2a) Y93H vs original JFH1(2a),1600 fold
same,fold more resistant than the respective original recombinant,JFH1(2a)-Y93H; JFH1(2a)-Y93H,> 1000 fold
same,EC50,"[4]; Hepatitis C virus, JFH1(2a), NS5A mutation L31M, single experiment of three replicates, read-out: NS5A inhibitor, EC50 (nM), putative resistance mutant",17 nM
same,Fold resistance compared to original,[4]; JFH1(2a) L31M vs original JFH1(2a),190 fold
same,resistance,[4]; NS5A L31M in the J6/JFH1 background,confer resistance
same,EC50,"J6(2a)-Y93H; Hepatitis C virus, J6(2a), NS5A mutation Y93H, read-out: NS5A inhibitor, EC50 (nM), putative resistance mutant",2000 nM
same,Fold resistance compared to original,J6(2a)-Y93H; J6(2a) Y93H vs original J6(2a),140 fold
same,fold more resistant than the respective original recombinant,J6(2a)-Y93H; J6(2a)-Y93H,~100 fold
same,EC50,"[5]; Hepatitis C virus, JFH1(2a), NS5A mutation C92E, single experiment of three replicates, read-out: NS5A inhibitor, EC50 (nM), putative resistance mutant",14 nM
same,Fold resistance compared to original,[5]; JFH1(2a) C92E vs original JFH1(2a),170 fold
same,resistance,[5]; NS5A C92E in the J6/JFH1 background,confer resistance
same,EC50,"[6]; Hepatitis C virus, JFH1(2a), NS5A mutation K30A, single experiment of three replicates, read-out: NS5A inhibitor, EC50 (nM), putative resistance mutant",0.034 nM
same,Fold resistance compared to original,[6]; JFH1(2a) K30A vs original JFH1(2a),0.38 fold
